# Measurements taken from the supplement of paper PMC4862054.
# Experiments:
# Conditions in all cases: incubation time: 72 h
# HCC1143 [1] = test: normalised response (% of control), CellTiter-Glo; higher = more viable cells (100 = DMSO, 0 = benzethonium chloride kill control)
# Procedure, shortened: (§1)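 Each entry is the normalised signal at a single concentration within a series. The series comprised 5 concentrations in 10-fold steps over a compound-specific 10,000-fold range, placed in 384-well plates into which breast cancer cell lines were seeded as 20 µl suspension and incubated 72 h. CellTox Green (485/520 nm) fluorescence and then CellTiter-Glo luminescence were read, with signals normalised per plate to 0.1 % DMSO (100) and a positive kill control (0).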
# HCC1599 [2] = test: as above
# Procedure, shortened: as §1
# CAL-85-1 [3] = test: as above
# Procedure, shortened: as §1
# MDA-MB-453 [4] = test: as above
# Procedure, shortened: as §1
# SK-BR-3 = test: as above
# Procedure, shortened: as §1
# BT-549 [5] = test: as above
# Procedure, shortened: as §1
# CAL-120 [6] = test: as above
# Procedure, shortened: as §1
# MDA-MB-436 [7] = test: as above
# Procedure, shortened: as §1
# BT-474 [8] = test: as above
# Procedure, shortened: as §1
# Hs578T [9] = test: as above
# Procedure, shortened: as §1
# MDA-MB-468 [10] = test: as above
# Procedure, shortened: as §1
# MFM-223 [11] = test: as above
# Procedure, shortened: as §1
# CAL-51 [12] = test: as above
# Procedure, shortened: as §1
# MCF-10A [13] = test: as above
# Procedure, shortened: as §1
# HCC1937 [14] = test: as above
# Procedure, shortened: as §1
# HDQ-P1 [15] = test: as above
# Procedure, shortened: as §1
# CAL-148 [16] = test: as above
# Procedure, shortened: as §1
# DU-4475 [17] = test: as above
# Procedure, shortened: as §1
# MDA-MB-231 [18] = test: as above
# Procedure, shortened: as §1
# HCC1143 [19] = test: normalised response (% of control), CellTox Green; higher = less cell death (100 = DMSO, 0 = benzethonium chloride kill control)
# Procedure, shortened: as §1
# HCC1599 [20] = test: as above
# Procedure, shortened: as §1
# CAL-85-1 [21] = test: as above
# Procedure, shortened: as §1
# MDA-MB-453 [22] = test: as above
# Procedure, shortened: as §1
# BT-549 [23] = test: as above
# Procedure, shortened: as §1
# CAL-120 [24] = test: as above
# Procedure, shortened: as §1
# MDA-MB-436 [25] = test: as above
# Procedure, shortened: as §1
# BT-474 [26] = test: as above
# Procedure, shortened: as §1
# Hs578T [27] = test: as above
# Procedure, shortened: as §1
# MDA-MB-468 [28] = test: as above
# Procedure, shortened: as §1
# MFM-223 [29] = test: as above
# Procedure, shortened: as §1
# CAL-51 [30] = test: as above
# Procedure, shortened: as §1
# MCF-10A [31] = test: as above
# Procedure, shortened: as §1
# HCC1937 [32] = test: as above
# Procedure, shortened: as §1
# HDQ-P1 [33] = test: as above
# Procedure, shortened: as §1
# CAL-148 [34] = test: as above
# Procedure, shortened: as §1
# DU-4475 [35] = test: as above
# Procedure, shortened: as §1
# MDA-MB-231 [36] = test: as above
# Procedure, shortened: as §1
compound,measurement,setting,value
CO[C@H]1C[C@@H]2CC[C@@H](C)[C@@](O)(O2)C(=O)C(=O)N2CCCC[C@H]2C(=O)O[C@H]([C@H](C)C[C@@H]2CC[C@@H](O)[C@H](OC)C2)CC(=O)[C@H](C)/C=C(\C)[C@@H](O)[C@@H](OC)C(=O)[C@H](C)C[C@H](C)/C=C/C=C/C=C/1C [Sirolimus] (10 nM),normalised response,HCC1143 [1],69.1%
same,normalised response,HCC1599 [2],98.8%
same,normalised response,CAL-85-1 [3],63%
same,normalised response,MDA-MB-453 [4],66.2%
same,normalised response,SK-BR-3,66.4%
same,normalised response,BT-549 [5],58.3%
same,normalised response,CAL-120 [6],67.3%
same,normalised response,MDA-MB-436 [7],79.1%
same,normalised response,BT-474 [8],83.5%
same,normalised response,Hs578T [9],67.5%
same,normalised response,MDA-MB-468 [10],51.8%
same,normalised response,MFM-223 [11],70.9%
same,normalised response,CAL-51 [12],65.5%
same,normalised response,MCF-10A [13],102%
same,normalised response,HCC1937 [14],81.5%
same,normalised response,HDQ-P1 [15],82.8%
same,normalised response,CAL-148 [16],67.1%
same,normalised response,DU-4475 [17],88.5%
same,normalised response,MDA-MB-231 [18],93.9%
same,normalised response,HCC1143 [19],115%
same,normalised response,HCC1599 [20],90.7%
same,normalised response,CAL-85-1 [21],108%
same,normalised response,MDA-MB-453 [22],107%
same,normalised response,BT-549 [23],87.2%
same,normalised response,CAL-120 [24],105%
same,normalised response,MDA-MB-436 [25],69.6%
same,normalised response,BT-474 [26],94.8%
same,normalised response,Hs578T [27],59.7%
same,normalised response,MDA-MB-468 [28],157%
same,normalised response,MFM-223 [29],91.1%
same,normalised response,CAL-51 [30],104%
same,normalised response,MCF-10A [31],104%
same,normalised response,HCC1937 [32],97.7%
same,normalised response,HDQ-P1 [33],109%
same,normalised response,CAL-148 [34],52.9%
same,normalised response,DU-4475 [35],102%
same,normalised response,MDA-MB-231 [36],116%
